In patent publication US20060264460A1 (Wyeth, priority 2005, published 2006) one finds IC50 data, which are given here for 34 molecules.

Where only a bound is given, the exact number is not on record here.

T1 sequence (P41279 30-398): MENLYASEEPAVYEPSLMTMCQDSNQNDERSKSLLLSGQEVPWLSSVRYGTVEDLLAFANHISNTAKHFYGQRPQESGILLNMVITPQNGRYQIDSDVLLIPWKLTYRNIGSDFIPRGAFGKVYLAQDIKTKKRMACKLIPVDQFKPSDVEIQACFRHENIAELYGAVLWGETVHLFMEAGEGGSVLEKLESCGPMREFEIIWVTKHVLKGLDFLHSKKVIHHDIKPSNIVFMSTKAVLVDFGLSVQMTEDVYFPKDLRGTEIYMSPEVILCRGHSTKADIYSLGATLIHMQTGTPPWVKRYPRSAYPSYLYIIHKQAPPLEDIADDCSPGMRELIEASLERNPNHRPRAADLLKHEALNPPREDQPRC

This assay concerns the target T1, human Cot/Tpl2 kinase (Homo sapiens, UniProt P41279).
T1 construct: human Cot/Tpl2 kinase construct encoding residues 30-398; 6His (N); made in house; host or cells: Sf9 insect cells, baculovirus system (BD Biosciences)
The assay can be described thus: Tpl2/Cot kinase assay: GST-MEK1 phosphorylation detected by ELISA (DELFIA Eu). It is filed as biochemical. The note with it: 0.4 nM Tpl2, 35 nM GST-MEK1, 50 uM ATP, 1 h at 30° C. The gist of the method:
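His-tagged human Tpl2 from Sf9 cells, Ni-affinity and size-exclusion purified (monomer). 0.4 nM Tpl2 with 35 nM GST-MEK1, 50 uM ATP, MOPS pH 7.2, 1% DMSO, 1 h at 30° C; EDTA stop. MEK1 Ser217/221 phosphorylation detected by anti-phospho-MEK1 and Eu-labelled secondary ELISA; IC50 fitted.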
On the technique in general: In an ELISA, binding on a coated surface is turned into a signal by an enzyme label.
For the molecule `N#Cc1ccccc1CNc1cc(C(F)(F)F)c2ncc(C#N)c(Nc3ccc(F)c(Cl)c3)c2c1` [Example 233, 4-[(3-chloro-4-fluorophenyl)amino]-6-[(2-cyanobenzyl)amino]-8-(trifluoromethyl)quinoline-3-carbonitrile], the IC50 – broadly, the concentration that inhibits the measured activity by half – was greater than 40000 nM. As for `N#Cc1ccc(CNc2cc(C(F)(F)F)c3ncc(C#N)c(Nc4ccc(F)c(Cl)c4)c3c2)cc1` [Example 234, 4-[(3-chloro-4-fluorophenyl)amino]-6-[(4-cyanobenzyl)amino]-8-(trifluoromethyl)quinoline-3-carbonitrile], the figure is 15100 nM; as for `N#Cc1cnc2c(C(F)(F)F)cc(NCc3ccccc3F)cc2c1Nc1ccc(F)c(Cl)c1` [Example 235, 4-[(3-chloro-4-fluorophenyl)amino]-6-[(2-fluorobenzyl)amino]-8-(trifluoromethyl)quinoline-3-carbonitrile], greater than 40000 nM; as for `Cn1ccnc1CNc1cc(C(F)(F)F)c2ncc(C#N)c(Nc3ccc(F)c(Cl)c3)c2c1` [Example 236, 4-[(3-chloro-4-fluorophenyl)amino]-6-{[(1-methyl-1H-imidazol-2-yl)methyl]amino}-8-(trifluoromethyl)quinoline-3-carbonitrile], 200 nM.

In the case of `N#Cc1cnc2c(C(F)(F)F)cc(NCc3cccn3S(=O)(=O)c3ccccc3)cc2c1Nc1ccc(F)c(Cl)c1` [Example 237, 4-[(3-chloro-4-fluorophenyl)amino]-6-({[1-(phenylsulfonyl)-1H-pyrrol-2-yl]methyl}amino)-8-(trifluoromethyl)quinoline-3-carbonitrile], the half-maximal inhibitory concentration (IC50) was 24800 nM. Regarding `Cc1cc(CNc2cc(C(F)(F)F)c3ncc(C#N)c(Nc4ccc(F)c(Cl)c4)c3c2)oc1C` [Example 238, 4-[(3-chloro-4-fluorophenyl)amino]-6-{[(4,5-dimethyl-2-furyl)methyl]amino}-8-(trifluoromethyl)quinoline-3-carbonitrile], the IC50 worked out at 8400 nM.

`N#Cc1cnc2c(C(F)(F)F)cc(NCc3cncs3)cc2c1Nc1ccc(F)c(Cl)c1` [Example 239, 4-[(3-chloro-4-fluorophenyl)amino]-6-[(1,3-thiazol-5-ylmethyl)amino]-8-(trifluoromethyl)quinoline-3-carbonitrile] came in with an IC50 of 780 nM. The same measure for `N#Cc1cnc2c(C(F)(F)F)cc(NCc3cncnc3)cc2c1Nc1ccc(F)c(Cl)c1` [Example 240, 4-[(3-chloro-4-fluorophenyl)amino]-6-[(pyrimidin-5-ylmethyl)amino]-8-(trifluoromethyl)quinoline-3-carbonitrile]: 190 nM. As for `COc1ncc(CNc2cc(C(F)(F)F)c3ncc(C#N)c(Nc4ccc(F)c(Cl)c4)c3c2)c(OC)n1` [Example 241], the figure is greater than 40000 nM. As for `N#Cc1cnc2c(C(F)(F)F)cc(NCc3cnc(S(=O)(=O)c4ccccc4)s3)cc2c1Nc1ccc(F)c(Cl)c1` [Example 242, 4-[(3-chloro-4-fluorophenyl)amino]-6-({[2-(phenylsulfonyl)-1,3-thiazol-5-yl]methyl}amino)-8-(trifluoromethyl)quinoline-3-carbonitrile], the figure is greater than 40000 nM; as for `N#Cc1cnc2ccc(NCc3cnc(N4CCOCC4)s3)cc2c1Nc1ccc(F)c(Cl)c1` [Example 243, 4-[(3-chloro-4-fluorophenyl)amino]-6-{[(2-morpholin-4-yl-1,3-thiazol-5-yl)methyl]amino}quinoline-3-carbonitrile], greater than 40000 nM; as for `N#Cc1cnc2c(C(F)(F)F)cc(NCc3cnc(N4CCOCC4)s3)cc2c1Nc1ccc(F)c(Cl)c1` [Example 244, 4-[(3-chloro-4-fluorophenyl)amino]-6-{[(2-morpholin-4-yl-1,3-thiazol-5-yl)methyl]amino}-8-(trifluoromethyl)quinoline-3-carbonitrile], greater than 40000 nM. The molecule `N#Cc1cnc2ccc(NCc3cnc(S(=O)(=O)c4ccccc4)s3)cc2c1Nc1ccc(F)c(Cl)c1` [Example 245, 4-[(3-chloro-4-fluorophenyl)amino]-6-({[2-(phenylsulfonyl)-1,3-thiazol-5-yl]methyl}amino)quinoline-3-carbonitrile] displayed a half-inhibitory concentration (IC50) of 910 nM. As for `N#Cc1cnc2ccc(NCc3cccnc3)cc2c1NC1CCCCCC1` [Example 246, 4-(cycloheptylamino)-6-[(pyridin-3-ylmethyl)amino]quinoline-3-carbonitrile], the figure is 2400 nM; as for `N#Cc1cccc(CNc2ccc3ncc(C#N)c(NC4CCCCCC4)c3c2)c1` [Example 247, 6-[(3-Cyanobenzyl)amino]-4-(cycloheptylamino)quinoline-3-carbonitrile], 2500 nM. `CS(=O)(=O)c1cccc(CNc2ccc3ncc(C#N)c(NC4CCCCCC4)c3c2)c1` [Example 248, 4-(cycloheptylamino)-6-{[3-(methylsulfonyl)benzyl]amino}quinoline-3-carbonitrile] displayed an IC50 of 2500 nM. This counts as single-digit micromolar.

As to `Cn1ccnc1CNc1ccc2ncc(C#N)c(NC3CCCCCC3)c2c1` [Example 249, 4-(cycloheptylamino)-6-{[(1-methyl-1H-imidazol-2-yl)methyl]amino}quinoline-3-carbonitrile], half-maximal inhibition (IC50) was put at 380 nM.

The molecule `N#Cc1cnc2ccc(NCc3ccc(S(N)(=O)=O)cc3)cc2c1NC1CCCCCC1` [Example 250, 4-({[3-cyano-4-(cycloheptylamino)quinolin-6-yl]amino}methyl)benzenesulfonamide] showed a 50% inhibitory concentration (IC50) of 6800 nM. As for `N#Cc1cnc2ccc(NCc3ccn[nH]3)cc2c1NC1CCCCCC1` [Example 251, 4-(cycloheptylamino)-6-[(1H-pyrazol-5-ylmethyl)amino]quinoline-3-carbonitrile], the figure is 650 nM; as for `N#Cc1cnc2ccc(NCCN3CCOCC3)cc2c1NC1CCCCCC1` [Example 252, 4-(cycloheptylamino)-6-[(2-morpholin-4-ylethyl)amino]quinoline-3-carbonitrile], 6100 nM. `N#Cc1cnc2ccc(NCc3cccc[n+]3[O-])cc2c1NC1CCCCCC1` [Example 253, 4-(cycloheptylamino)-6-{[(1-oxidopyridin-2-yl)methyl]amino}quinoline-3-carbonitrile] had a concentration for half-maximal inhibition (IC50) of 1400 nM. The same measure for `Cc1nc2ccc(NCc3cnc[nH]3)cc2c(Nc2ccc(F)c(Cl)c2)c1C#N` [Example 254, 4-[(3-chloro-4-fluorophenyl)amino]-6-[(1H-imidazol-5-ylmethyl)amino]-2-methylquinoline-3-carbonitrile]: 19900 nM; for `Cc1nc2ccc(NCc3cccnc3)cc2c(Nc2ccc(F)c(Cl)c2)c1C#N` [Example 255, 4-[(3-chloro-4-fluorophenyl)amino]-2-methyl-6-[(pyridin-3-ylmethyl)amino]quinoline-3-carbonitrile]: greater than 40000 nM; for `N#Cc1cnc2ccc(NC3CCCC3c3ccccn3)cc2c1Nc1ccc(F)c(Cl)c1` (stereo not shown) [Example 256, 4-[(3-chloro-4-fluorophenyl)amino]-6-[(2-pyridin-2-ylcyclopentyl)amino]quinoline-3-carbonitrile]: 310 nM. The same measure for `N#Cc1cnc2c(C(F)(F)F)cc(NCc3cccc[n+]3[O-])cc2c1Nc1ccc(F)c(Cl)c1` [Example 257, 4-[(3-chloro-4-fluorophenyl)amino]-6-{[(1-oxidopyridin-2-yl)methyl]amino}-8-(trifluoromethyl)quinoline-3-carbonitrile]: 370 nM. As for `N#Cc1cnc2ccc(NCc3cccc(Br)n3)cc2c1Nc1ccc(F)c(Cl)c1` [Example 258, 6-{[(6-bromopyridin-2-yl)methyl]amino}-4-[(3-chloro-4fluorophenyl)amino]quinoline-3-carbonitrile], the IC50 is 270 nM.

For the molecule `N#Cc1cnc2c(C(F)(F)F)cc(NCc3cccc(Br)n3)cc2c1Nc1ccc(F)c(Cl)c1` [Example 259, 6-{[(6-Bromopyridin-2-yl)methyl]amino}-4-[(3-chloro-4-fluorophenyl)amino]-8-(trifluoromethyl)quinoline-3-carbonitrile], the IC50 is greater than 40000 nM. As for `CC(Nc1ccc2ncc(C#N)c(Nc3ccc(F)c(Cl)c3)c2c1)c1cnccn1` (stereo not shown) [Example 260, 4-[(3-chloro-4-fluorophenyl)amino]-6-[(1-pyrazin-2-ylethyl)amino]quinoline-3-carbonitrile], the figure is 830 nM; as for `Cn1nc(C(C)(C)C)cc1Nc1c(C#N)cnc2ccc(NCc3cnc[nH]3)cc12` [Example 261, 4-[(3-tert-butyl-1-methyl-1H-pyrazol-5-yl)amino]-6-[(1 H-imidazol-5-ylmethyl)amino]quinoline-3-carbonitrile], greater than 40000 nM. Take `Cc1noc(Nc2c(C#N)cnc3ccc(NCc4cnc[nH]4)cc23)c1C` [Example 262, 4-[(3,4-dimethylisoxazol-5-yl)amino]-6-[(1H-imidazol-5-ylmethyl)amino]quinoline-3-carbonitrile]: inhibition was half-maximal at 2200 nM (IC50).

Regarding `N#Cc1cnc2ccc(NCc3cnc[nH]3)cc2c1Nc1cccnc1` [Example 263, 6-[(1H-imidazol-5-ylmethyl)amino]-4-(pyridin-3-ylamino)quinoline-3-carbonitrile], half-maximal inhibition (IC50) was put at 1600 nM. The IC50 values of the last two molecules are within 1.5-fold of each other.

`N#Cc1cnc2ccc(NCc3cnc[nH]3)cc2c1Nc1ccncc1` [Example 264, 6-[(1H-imidazol-5-ylmethyl)amino]-4-(pyridin-4-ylamino)quinoline-3-carbonitrile]: it took 2500 nM to reach half-maximal inhibition (IC50). Against the preceding molecule, the IC50 is about 1.6-fold higher. `N#Cc1cnc2c(F)cc(NCc3cnc[nH]3)cc2c1Nc1ccc(F)c(Cl)c1` [Example 265, 4-[(3-Chloro-4-fluorophenyl)amino]-8-fluoro-6-[(1H-imidazol-5-ylmethyl)amino]quinoline-3-carbonitrile] yielded an IC50 of 21 nM. As for `N#Cc1cnc2c(F)cc(NCc3cccc[n+]3[O-])cc2c1Nc1ccc(F)c(Cl)c1` [Example 266, 4-[(3-chloro-4-fluorophenyl)amino]-8-fluoro-6-{[(1-oxidopyridin-2-yl)methyl]amino}quinoline-3-carbonitrile], the figure is 13 nM.
